Results: patent US8987249B2, “Substituted 2-Aza-bicyclo[2.2.1]heptane-3-carboxylic acid (benzyl-cyano-methyl)-amides inhibitors of Cathepsin C” (Boehringer Ingelheim International GmbH, priority 2013, dated 2015)

Assays:
[1] = molecular target: recombinant human DPPI (Cathepsin C) (Homo sapiens (Human), UniProt P53634); assay: Inhibition of human DPPI (Cathepsin C); type: biochemical; details: substrate Gly-Arg-AMC
Method in brief: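 Fluorescence read after 30 min room-temperature turnover of 50 μM (final) substrate by recombinant human cathepsin C, pH 6.0 MES/NaCl/DTT/BSA buffer, quenched by Gly-Phe-DMK (1 μM final). Activity as percent of vehicle after background subtraction, used for IC50.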

[2] = molecular target: recombinant human Cathepsin K (Homo sapiens (Human), UniProt P43235); assay: Inhibition of human Cathepsin K; type: biochemical; details: substrate Z-Gly-Pro-Arg-AMC
Source text: Inhibition of Human Cathepsin K
Materials: Microtiterplates (Optiplate-384 F were purchased from PerkinElmer (Prod. No. 6007270). The substrate Z-Gly-Pro-Arg-AMC was from Biomol (Prod.-No. P-142). L-Cysteine (Prod. No. 168149) was from Sigma. Sodium acetate was from Merck (Prod.-No. 6268.0250), EDTA was from Fluka (Prod.-No. 03680). The inhibitor E-64 was purchased from Sigma (Prod.-No. E3132). The recombinant human Cathepsin K proenzyme was purchased from Biomol (Prod. No. SE-367). All other materials were of highest grade commercially available.
The following buffers were used: Activation buffer: 32.5 mM sodium acetate, adjusted to pH 3.5 with HCl; Assay buffer: 150 mM sodium acetate, 4 mM EDTA, 20 mM L-Cysteine, adjusted to pH 5.5 with HCl,
To activate the proenzyme, 5 μl procathepsin K were mixed with 1 ul activation buffer, and incubated at room temperature for 30 min.
5 μL test compound (final concentration 0.1 nM to 100 μM) in aqua bidest (containing 4% DMSO, final DMSO concentration 1%) were mixed with 10 uL of Cathepsin K in assay buffer (final concentration 2 ng/μL) and incubated for 10 min. […] The plates were then incubated at room temperature for 60 min. Then, the reaction was stopped by adding 10 μL of E64 in assay buffer (final concentration 1 μM). The fluorescence in the wells was determined using a Molecular Devices SpectraMax M5 Fluorescence Reader (Ex 360 nm, Em 460 nm).
Each assay microtiter plate contains wells with vehicle controls (1% DMSO in bidest) as reference for non-inhibited enzyme activity (100% Ctl; high values) and wells with inhibitor (E64 in bidest+1% DMSO, final concentration […]) as controls for background fluorescence (0% Ctl; low values). The analysis of the data was performed by calculating the percentage of fluorescence in the presence of test compound in comparison to the fluorescence of the vehicle control after subtracting the background fluorescence: (RFU(sample)−RFU(background))*100/(RFU(control)−RFU(background))
Data from these calculations were used to generate IC50 values for inhibition of Cathepsin K, respectively.

Sequence of recombinant human Cathepsin K (P43235 115-329): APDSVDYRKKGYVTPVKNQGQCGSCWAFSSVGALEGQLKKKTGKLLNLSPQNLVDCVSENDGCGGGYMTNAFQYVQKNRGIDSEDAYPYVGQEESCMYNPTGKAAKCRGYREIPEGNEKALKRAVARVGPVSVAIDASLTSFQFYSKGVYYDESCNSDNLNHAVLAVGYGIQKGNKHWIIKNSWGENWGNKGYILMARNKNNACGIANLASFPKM
Sequence of recombinant human DPPI (Cathepsin C) (P53634 231-394): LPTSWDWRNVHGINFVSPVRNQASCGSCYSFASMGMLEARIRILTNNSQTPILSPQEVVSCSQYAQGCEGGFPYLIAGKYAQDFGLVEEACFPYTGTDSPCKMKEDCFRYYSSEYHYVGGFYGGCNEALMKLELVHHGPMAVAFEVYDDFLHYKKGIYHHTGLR
Sequence of recombinant human DPPI (Cathepsin C) (P53634 395-463): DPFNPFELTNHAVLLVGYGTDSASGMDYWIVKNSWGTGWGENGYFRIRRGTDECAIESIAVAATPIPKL
Sequence of recombinant human DPPI (Cathepsin C) (P53634 25-134): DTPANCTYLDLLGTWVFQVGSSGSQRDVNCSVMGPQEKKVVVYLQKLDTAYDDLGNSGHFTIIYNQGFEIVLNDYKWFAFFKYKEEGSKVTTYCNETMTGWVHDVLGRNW

Row | IC50 [1] [nM] | IC50 [2] [nM] | Compound
1 | 4.5 | 3900 | N#C[C@H](Cc1ccc(N2CCN(c3ccccc3)CC2)cc1F)NC(=O)[C@H]1N[C@@H]2CC[C@H]1C2 [Example 32, (1S,2S,4R)—N-[(1S)-1-cyano-2-[2-fluoro-4-(4-phenylpiperazin-1-yl)phenyl]ethyl]-3-azabicyclo[2.2.1]heptane-2-carboxamide]
2 | 6.3 | 4400 | N#C[C@@H](Cc1ccc(-c2ccc3ncsc3c2)cc1F)NC(=O)[C@H]1N[C@@H]2CC[C@H]1C2 [Example 45]
3 | 4.2 | 3100 | CCCn1cc(-c2ccc(C[C@@H](C#N)NC(=O)[C@H]3N[C@@H]4CC[C@H]3C4)c(F)c2)cn1 [Example 30]
4 | 9.4 | 4800 | COc1ncc(-c2cn(-c3ccc(C[C@@H](C#N)NC(=O)[C@H]4N[C@@H]5CC[C@H]4C5)c(F)c3)nn2)cn1 [Example 66]
5 | 3.7 | 3800 | CC(C)(C)n1cc(-c2ccc(C[C@@H](C#N)NC(=O)[C@H]3N[C@@H]4CC[C@H]3C4)c(F)c2)cn1 [Example 23]
6 | 16.1 | 19400 | COC(=O)c1cc(-c2ccc(C[C@@H](C#N)NC(=O)[C@H]3N[C@H]4C[C@@H]3[C@@H]3C[C@@H]34)c(F)c2)cs1 [Example 133]
7 | 25.9 | 4700 | Cn1c(=O)oc2cc(-c3ccc(CC(C#N)NC(=O)[C@H]4N[C@@H]5CC[C@H]4C5)c(F)c3)ccc21 (stereo partly drawn) [Example 107]
8 | 1.7 | 1600 | N#C[C@H](Cc1ccc(-c2csc(C(=O)N3CCN(C4CC4)CC3)c2)cc1F)NC(=O)[C@H]1N[C@@H]2CC[C@H]1C2 [Example 229]
9 | 1.7 | 2600 | N#CC(Cc1ccc(-c2ccc3c(c2)COC3=O)cc1F)NC(=O)[C@H]1N[C@@H]2CC[C@H]1C2 (stereo partly drawn) [Example 11]
10 | 18.3 | 6900 | Cc1ncc(-c2ccc(C[C@@H](C#N)NC(=O)[C@H]3N[C@H]4C[C@@H]3[C@@H]3C[C@@H]34)c(F)c2)s1 [Example 93]
11 | 14 | 3000 | N#Cc1sccc1-c1ccc(C[C@@H](C#N)NC(=O)[C@H]2N[C@@H]3CC[C@H]2C3)c(F)c1 [Example 85]
12 | 30.4 | 14600 | N#CC(Cc1ccc(-c2ccc3c(c2)CCNC3=O)cc1F)NC(=O)[C@H]1N[C@H]2C[C@@H]1[C@@H]1C[C@@H]12 (stereo partly drawn) [Example 148]
13 | 4.8 | 2900 | CC(=O)NCCn1cc(-c2ccc(C[C@@H](C#N)NC(=O)[C@H]3N[C@@H]4CC[C@H]3C4)c(F)c2)cn1 [Example 38]
14 | 37.8 | 2300 | N#C[C@H](Cc1ccc(-c2ccc(C(=O)O)s2)cc1F)NC(=O)[C@H]1N[C@@H]2CC[C@H]1C2 [Example 115]
15 | 36.9 | 4800 | CCS(=O)(=O)c1ccc(-c2ccc(C[C@@H](C#N)NC(=O)[C@H]3N[C@H]4C[C@@H]3[C@@H]3C[C@@H]34)c(F)c2)cc1 [Example 151]
16 | 4.6 | 2500 | N#C[C@H](Cc1ccc(-c2ccc3c(c2)C(=O)OC3)cc1F)NC(=O)[C@H]1N[C@@H]2CC[C@H]1C2 [Example 34]
17 | 36.4 | 8300 | CCc1ncc(-c2ccc(C[C@@H](C#N)NC(=O)[C@H]3N[C@H]4C[C@@H]3[C@@H]3C[C@@H]34)c(F)c2)s1 [Example 113]
18 | 30.5 | 9600 | N#C[C@H](Cc1ccc(-c2cccc(C(N)=O)c2)cc1F)NC(=O)[C@H]1N[C@H]2C[C@@H]1[C@@H]1C[C@@H]12 [Example 146]
19 | 38.6 | 9300 | CNS(=O)(=O)c1ccc(-c2ccc(C[C@@H](C#N)NC(=O)[C@H]3N[C@H]4C[C@@H]3[C@@H]3C[C@@H]34)c(F)c2)cc1 [Example 150]
20 | 26.3 | 11100 | CS(=O)(=O)c1cccc(-c2ccc(C[C@@H](C#N)NC(=O)[C@H]3N[C@H]4C[C@@H]3[C@@H]3C[C@@H]34)c(F)c2)c1 [Example 144]
21 | 2.7 | 3000 | N#C[C@H](Cc1ccc(-c2ccsc2)cc1F)NC(=O)[C@H]1N[C@@H]2CC[C@H]1C2 [Example 18]
